Measurements reported in the kinase profiling compilation of Christmann-Franck et al. (2016).
“And” between values parts separate entries of the source, which are not always exact repeats. Equal entries are not always repeated.

What was measured:
Assay in all cases: radiometric filter-binding kinase assay, Kinase HotSpot
Details in all cases: compound 0.5 µM; ATP 10 µM
[1] = target: NTRK2 (human) (UniProt Q16620)
[2] = target: RPS6KA5 KD2 (human) (UniProt O75582)
[3] = target: RPS6KA1 KD1 KD2 (human) (UniProt Q15418)
[4] = target: MAPK9 (human) (UniProt P45984)
[5] = target: FGFR2 (human) (UniProt P21802)
[6] = target: MLTK (human) (UniProt Q9NYL2)
[7] = target: SRPK1 (human) (UniProt Q96SB4)
[8] = target: LYN (human) (UniProt P07948)
Sequence of LYN (human) (P07948 whole entry, looked up): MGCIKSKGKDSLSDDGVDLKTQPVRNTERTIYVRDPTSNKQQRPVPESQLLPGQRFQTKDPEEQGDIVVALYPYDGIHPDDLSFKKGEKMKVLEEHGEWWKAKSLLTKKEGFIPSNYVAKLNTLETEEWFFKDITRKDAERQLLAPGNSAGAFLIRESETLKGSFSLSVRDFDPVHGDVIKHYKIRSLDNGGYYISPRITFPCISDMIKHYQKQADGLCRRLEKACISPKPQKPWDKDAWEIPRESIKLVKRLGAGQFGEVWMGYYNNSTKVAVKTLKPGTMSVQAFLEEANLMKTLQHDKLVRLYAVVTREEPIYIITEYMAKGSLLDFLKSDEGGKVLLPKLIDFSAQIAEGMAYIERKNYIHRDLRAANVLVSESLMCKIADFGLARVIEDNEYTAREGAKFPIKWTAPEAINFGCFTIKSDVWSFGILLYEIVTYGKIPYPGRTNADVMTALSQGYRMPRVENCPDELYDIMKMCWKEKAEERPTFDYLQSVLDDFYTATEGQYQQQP

[9] = target: NUAK1 (human) (UniProt O60285)
[10] = target: PHKG2 (human) (UniProt P15735)
Sequence of PHKG2 (human) (P15735 whole entry, looked up): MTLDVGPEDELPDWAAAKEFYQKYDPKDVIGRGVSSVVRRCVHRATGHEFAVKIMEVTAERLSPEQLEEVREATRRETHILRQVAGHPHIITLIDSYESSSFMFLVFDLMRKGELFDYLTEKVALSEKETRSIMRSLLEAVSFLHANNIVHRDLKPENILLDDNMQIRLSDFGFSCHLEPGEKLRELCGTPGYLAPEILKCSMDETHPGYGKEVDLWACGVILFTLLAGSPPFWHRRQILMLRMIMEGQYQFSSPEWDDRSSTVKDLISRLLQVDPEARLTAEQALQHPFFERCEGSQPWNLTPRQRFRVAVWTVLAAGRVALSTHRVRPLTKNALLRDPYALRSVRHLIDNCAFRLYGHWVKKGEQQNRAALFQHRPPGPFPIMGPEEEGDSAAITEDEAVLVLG

[11] = target: LTK (human) (UniProt P29376)
[12] = target: NEK1 (human) (UniProt Q96PY6)
[13] = target: MAP3K11 (human) (UniProt Q16584)
Sequence of MAP3K11 (human) (Q16584 whole entry, looked up): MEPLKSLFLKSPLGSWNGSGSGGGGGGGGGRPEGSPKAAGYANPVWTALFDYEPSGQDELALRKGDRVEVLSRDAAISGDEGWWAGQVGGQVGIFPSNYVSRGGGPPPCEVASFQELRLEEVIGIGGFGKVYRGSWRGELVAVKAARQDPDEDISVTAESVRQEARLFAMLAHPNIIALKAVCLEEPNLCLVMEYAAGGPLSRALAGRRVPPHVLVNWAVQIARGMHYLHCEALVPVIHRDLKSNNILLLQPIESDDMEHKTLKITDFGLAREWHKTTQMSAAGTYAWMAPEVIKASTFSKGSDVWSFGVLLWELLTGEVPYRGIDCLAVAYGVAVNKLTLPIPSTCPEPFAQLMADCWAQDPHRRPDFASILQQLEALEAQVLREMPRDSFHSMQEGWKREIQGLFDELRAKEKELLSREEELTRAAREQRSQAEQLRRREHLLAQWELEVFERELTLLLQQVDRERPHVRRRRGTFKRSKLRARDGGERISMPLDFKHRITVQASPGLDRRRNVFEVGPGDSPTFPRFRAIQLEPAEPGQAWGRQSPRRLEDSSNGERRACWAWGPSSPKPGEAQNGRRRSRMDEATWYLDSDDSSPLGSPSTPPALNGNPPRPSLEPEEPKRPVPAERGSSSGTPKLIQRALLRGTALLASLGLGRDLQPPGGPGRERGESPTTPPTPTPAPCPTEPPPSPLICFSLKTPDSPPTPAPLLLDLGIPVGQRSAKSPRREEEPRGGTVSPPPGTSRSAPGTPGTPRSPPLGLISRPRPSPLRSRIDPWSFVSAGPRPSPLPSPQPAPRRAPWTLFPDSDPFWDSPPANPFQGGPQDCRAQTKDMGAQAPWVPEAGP

[14] = target: KIT (human) (UniProt P10721)
[15] = target: FYN (human) (UniProt P06241)
[16] = target: CDK9 CCNT1 (human) (UniProt P50750+O60563)
[17] = target: CAMK1 (human) (UniProt Q14012)
Sequence of CAMK1 (human) (Q14012 whole entry, looked up): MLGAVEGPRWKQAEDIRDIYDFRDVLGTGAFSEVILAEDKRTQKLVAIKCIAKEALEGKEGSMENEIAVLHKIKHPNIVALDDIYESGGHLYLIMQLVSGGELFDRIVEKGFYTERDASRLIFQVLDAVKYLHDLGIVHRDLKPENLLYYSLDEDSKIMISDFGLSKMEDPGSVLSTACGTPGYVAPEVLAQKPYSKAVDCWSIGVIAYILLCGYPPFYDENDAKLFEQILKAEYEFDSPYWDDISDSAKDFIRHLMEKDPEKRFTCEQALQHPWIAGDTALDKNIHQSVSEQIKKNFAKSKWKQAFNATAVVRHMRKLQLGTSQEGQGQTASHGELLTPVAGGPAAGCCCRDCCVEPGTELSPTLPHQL

[18] = target: ADRBK1 (human) (UniProt P25098)
[19] = target: ULK1 (human) (UniProt O75385)
[20] = target: MELK (human) (UniProt Q14680)
[21] = target: JAK1 JH1 catalytic (human) (UniProt P23458)
[22] = target: NEK3 (human) (UniProt P51956)
[23] = target: EPHB1 (human) (UniProt P54762)
Sequence of EPHB1 (human) (P54762 whole entry, looked up): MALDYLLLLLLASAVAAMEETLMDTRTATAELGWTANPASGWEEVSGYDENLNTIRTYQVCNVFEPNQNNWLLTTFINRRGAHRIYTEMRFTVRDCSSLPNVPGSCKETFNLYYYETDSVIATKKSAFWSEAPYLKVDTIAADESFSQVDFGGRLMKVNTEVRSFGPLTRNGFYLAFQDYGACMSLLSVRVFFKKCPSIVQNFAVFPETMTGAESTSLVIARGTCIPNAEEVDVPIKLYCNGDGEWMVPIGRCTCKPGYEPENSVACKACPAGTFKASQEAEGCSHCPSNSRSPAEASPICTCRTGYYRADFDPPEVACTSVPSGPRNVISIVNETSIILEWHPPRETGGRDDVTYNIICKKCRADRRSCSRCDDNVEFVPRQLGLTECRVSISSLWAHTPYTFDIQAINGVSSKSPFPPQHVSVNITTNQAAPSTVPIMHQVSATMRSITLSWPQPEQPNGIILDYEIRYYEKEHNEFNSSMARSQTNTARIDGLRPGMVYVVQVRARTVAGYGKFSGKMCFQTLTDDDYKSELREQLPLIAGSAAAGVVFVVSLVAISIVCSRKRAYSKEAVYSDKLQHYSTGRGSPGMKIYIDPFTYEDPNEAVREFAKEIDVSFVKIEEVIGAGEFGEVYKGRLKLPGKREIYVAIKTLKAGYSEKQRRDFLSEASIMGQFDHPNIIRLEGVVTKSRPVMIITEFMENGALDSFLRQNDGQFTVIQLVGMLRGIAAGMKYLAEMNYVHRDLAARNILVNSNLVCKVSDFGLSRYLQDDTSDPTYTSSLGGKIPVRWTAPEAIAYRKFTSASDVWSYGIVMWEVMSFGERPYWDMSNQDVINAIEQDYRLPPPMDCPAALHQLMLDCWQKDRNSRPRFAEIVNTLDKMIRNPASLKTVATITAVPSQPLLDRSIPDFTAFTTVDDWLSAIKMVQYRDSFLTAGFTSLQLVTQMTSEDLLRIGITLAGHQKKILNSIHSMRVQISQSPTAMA

[24] = target: RPS6KB2 (human) (UniProt Q9UBS0)
[25] = target: KDR (human) (UniProt P35968)
[26] = target: PAK6 (human) (UniProt Q9NQU5)
Sequence of PAK6 (human) (Q9NQU5 whole entry, looked up): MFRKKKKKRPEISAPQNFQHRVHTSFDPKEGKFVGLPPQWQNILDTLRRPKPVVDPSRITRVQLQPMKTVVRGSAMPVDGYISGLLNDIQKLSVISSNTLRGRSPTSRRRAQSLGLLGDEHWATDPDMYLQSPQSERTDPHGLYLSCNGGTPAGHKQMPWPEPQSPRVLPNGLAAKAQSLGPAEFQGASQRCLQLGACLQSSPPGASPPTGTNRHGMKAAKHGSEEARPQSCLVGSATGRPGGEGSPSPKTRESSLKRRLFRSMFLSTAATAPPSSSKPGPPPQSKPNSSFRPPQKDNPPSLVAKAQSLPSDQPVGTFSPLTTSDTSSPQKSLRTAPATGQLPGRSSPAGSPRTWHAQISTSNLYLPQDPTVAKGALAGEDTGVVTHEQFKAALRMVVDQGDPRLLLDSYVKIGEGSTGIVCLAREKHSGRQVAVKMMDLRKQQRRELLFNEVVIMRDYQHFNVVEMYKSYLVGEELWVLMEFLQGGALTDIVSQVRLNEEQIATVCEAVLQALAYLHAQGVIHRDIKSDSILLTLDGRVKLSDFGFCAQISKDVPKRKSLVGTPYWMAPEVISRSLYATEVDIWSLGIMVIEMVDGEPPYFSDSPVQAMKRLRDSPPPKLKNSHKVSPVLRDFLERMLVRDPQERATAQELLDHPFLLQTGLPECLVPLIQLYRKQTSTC

[27] = target: CSNK1A1 (human) (UniProt P48729)
[28] = target: CLK4 (human) (UniProt Q9HAZ1)
[29] = target: PRKG1 (human) (UniProt Q13976)
Sequence of PRKG1 (human) (Q13976 whole entry, looked up): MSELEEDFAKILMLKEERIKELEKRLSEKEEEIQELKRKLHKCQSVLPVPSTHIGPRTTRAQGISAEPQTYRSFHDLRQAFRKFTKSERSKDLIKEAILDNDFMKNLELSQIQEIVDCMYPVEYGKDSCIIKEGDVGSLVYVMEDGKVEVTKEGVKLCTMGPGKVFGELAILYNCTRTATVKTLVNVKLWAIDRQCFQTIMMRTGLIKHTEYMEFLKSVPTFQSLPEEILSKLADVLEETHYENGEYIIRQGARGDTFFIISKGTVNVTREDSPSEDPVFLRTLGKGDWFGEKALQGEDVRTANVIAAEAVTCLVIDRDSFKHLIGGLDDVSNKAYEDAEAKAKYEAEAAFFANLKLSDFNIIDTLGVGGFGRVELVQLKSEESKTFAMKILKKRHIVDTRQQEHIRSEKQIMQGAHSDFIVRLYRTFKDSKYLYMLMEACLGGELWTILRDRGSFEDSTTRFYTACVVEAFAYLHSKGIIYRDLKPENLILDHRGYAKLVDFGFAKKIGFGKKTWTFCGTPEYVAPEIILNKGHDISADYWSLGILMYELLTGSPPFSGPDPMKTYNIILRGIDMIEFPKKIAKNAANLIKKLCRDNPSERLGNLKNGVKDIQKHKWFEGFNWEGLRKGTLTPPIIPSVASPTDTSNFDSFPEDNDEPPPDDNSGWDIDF

[30] = target: SRPK2 (human) (UniProt P78362)
[31] = target: STK24 (human) (UniProt Q9Y6E0)
Sequence of STK24 (human) (Q9Y6E0 whole entry, looked up): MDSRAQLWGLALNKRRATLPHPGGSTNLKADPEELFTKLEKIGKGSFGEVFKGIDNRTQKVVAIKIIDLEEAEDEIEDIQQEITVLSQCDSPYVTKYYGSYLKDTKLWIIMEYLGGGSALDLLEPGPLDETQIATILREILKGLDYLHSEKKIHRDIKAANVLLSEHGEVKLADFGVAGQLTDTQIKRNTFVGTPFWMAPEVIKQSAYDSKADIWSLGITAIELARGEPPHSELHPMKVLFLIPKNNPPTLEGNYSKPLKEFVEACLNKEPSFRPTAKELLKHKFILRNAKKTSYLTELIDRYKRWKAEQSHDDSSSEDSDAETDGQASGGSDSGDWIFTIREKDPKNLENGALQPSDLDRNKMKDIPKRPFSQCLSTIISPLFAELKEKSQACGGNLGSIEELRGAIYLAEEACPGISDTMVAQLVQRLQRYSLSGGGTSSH

[32] = target: PNCK (human) (UniProt Q6P2M8)
[33] = target: TTK (human) (UniProt P33981)
[34] = target: PTK2 (human) (UniProt Q05397)
[35] = target: MAPK3 (human) (UniProt P27361)
[36] = target: SRMS (human) (UniProt Q9H3Y6)
[37] = target: PRKCH (human) (UniProt P24723)
[38] = target: CDK6 CCND1 (human) (UniProt Q00534+P24385)
[39] = target: NEK11 (human) (UniProt Q8NG66)
[40] = target: PTK6 (human) (UniProt Q13882)
[41] = target: NTRK3 (human) (UniProt Q16288)
[42] = target: RET (human) (UniProt P07949)

CCN1/C(=C/C(C)=O)Sc2ccc(OC)cc21
residual activity [1]: 104% | residual activity [2]: 87.4% | residual activity [3]: 94% | residual activity [4]: 101% | residual activity [5]: 97.1% | residual activity [6]: 91% | residual activity [7]: 106% | residual activity [8]: 101% and 94.4% | residual activity [9]: 93.4% | residual activity [10]: 94.6% | residual activity [11]: 87.1% | residual activity [12]: 90.1% | residual activity [13]: 102% | residual activity [14]: 67.8% | residual activity [15]: 99.1% | residual activity [16]: 101% | residual activity [17]: 88.5% | residual activity [18]: 95.5% | residual activity [19]: 115% | residual activity [20]: 94.6% | residual activity [21]: 98.9% | residual activity [22]: 82.5% | residual activity [23]: 90.6% | residual activity [24]: 107% | residual activity [25]: 104% | residual activity [26]: 95.6% | residual activity [27]: 53% | residual activity [28]: 18.5% | residual activity [29]: 82.4% and 87% | residual activity [30]: 95.8% | residual activity [31]: 82.2% | residual activity [32]: 101% | residual activity [33]: 88.7% | residual activity [34]: 108% | residual activity [35]: 105% | residual activity [36]: 84.7% | residual activity [37]: 88.1% | residual activity [38]: 108% | residual activity [39]: 104% | residual activity [40]: 85.3% | residual activity [41]: 91.9% | residual activity [42]: 96.5%

Cc1ccc(NC(=O)c2ccc(CN3CCN(C)CC3)cc2)cc1Nc1nc(-c2cccnc2)cs1
residual activity [1]: 101% | residual activity [2]: 103% | residual activity [3]: 97.2% | residual activity [4]: 110% | residual activity [5]: 100% | residual activity [6]: 86.8% | residual activity [7]: 98.9% | residual activity [8]: 16.2% and 18.7% | residual activity [9]: 110% | residual activity [10]: 69.1% | residual activity [11]: 102% | residual activity [12]: 116% | residual activity [13]: 101% | residual activity [14]: 41.3% | residual activity [15]: 37.3% | residual activity [16]: 99.2% | residual activity [17]: 102% | residual activity [18]: 121% | residual activity [19]: 97.7% | residual activity [20]: 84.8% | residual activity [21]: 98.8% | residual activity [22]: 99.4% | residual activity [23]: 94.9% | residual activity [24]: 101% | residual activity [25]: 106% | residual activity [26]: 101% | residual activity [27]: 98.5% | residual activity [28]: 93.3% | residual activity [29]: 77.6% and 93.8% | residual activity [30]: 101% | residual activity [31]: 104% | residual activity [32]: 97% | residual activity [33]: 112% | residual activity [34]: 98.6% | residual activity [35]: 103% | residual activity [36]: 92.9% | residual activity [37]: 102% | residual activity [38]: 98% | residual activity [39]: 95.1% | residual activity [40]: 79.2% | residual activity [41]: 94.1% | residual activity [42]: 96.4%
